Source: patent US5091539A, “Azolyl cycloalkanol derivatives and agricultural fungicides” (Shionogi & Co., Ltd., priority 1984, dated 1992)
Converted amounts (≈) assume the structure as drawn.

How the values were obtained:
[1] = test system: Botrytis cinerea; test: Control test of Botrytis rot (gray mold) of cucumber; assay type: in vivo
Procedure: (1) Seedlings of cucumber (Cultivar: Matsukaze) were planted in a pot of 9 cm in diameter. The first leaf was sprayed with 3 ml each of solutions containing the test compound at the concentration of 125 or 31.3 ppm and the plant was dried by the air. After inoculation of the spores of Botrytis cinerea, the plants were kept at 20°±2° C. and 90-100% humidity ((i) protective spraying). Alternatively, the spores were inoculated at first and when the leaves suffered a little (about 2 days after), the solutions of the test compounds were sprayed ((ii) curative spraying). Evaluation was practised 3 days after the inoculation. Percent disease control was calculated by the ratio of diameter of diseased area in treated and untreated plants.
(§1) (1) Test methods and evaluation are the same as those in Tests 2, 4 and 6.

[2] = test system: Sclerotinia sclerotiorum; test: Control test to Sclerotinia rot of cucumber; assay type: in vivo
Description: (1) This test was practised in the same manner as in the above test, control test of Botrytis rot (gray mold) of cucumber, except for using the mycelium of Sclerotinia sclerotiorum as inoculm. The same as in test 2.

[3] = test system: Sphaerotheca fuliginea; test: Control test to powdery mildew of cucumber (foliar and soil treatment); assay type: in vivo; settings: for Foliar Treatment, Curative Effect / Foliar Treatment, Protective Effect / Soil Treatment, Protective Effect: index 0-10
Procedure: (1) Seeds of cucumber (Cultivar: Matsukaze) were sown in a pot of 9 cm in diameter and the pots were kept in a green house until the plant was grown for 2-3 leaf stage. The first leaf was sprayed with, (i) 3 ml each of solutions containing the test compound at the prescribed concetrations and dried by the air (foliar treatment). Inoculation of spore suspension of Sphaerotheca fuliginea by spraying was practised 2 days before the treatment (curative effect) or 1 day after the treatment (protective effect). Alternatively, (ii) 5 ml of the solution was applied at the root of the seedlings (soil treatment). The pots were kept in a greenhouse for 2 days and inoculation was practised in the same manner noted above. (iii) After sprayed with 3 ml of a solution of the test compound at a concentration of 125 ppm and dried by the air, the treated pots were set in a greenhouse. Untreated pots were placed next to the treated pots. Those treated and untreated plants were inoculated with spore suspension. Protective effect of the test compounds by vapor was thus checked. The effect was examined 14 days after the inoculation of the spores.
0: Disease sign is observed on the whole leaf.
3: Disease sign is observed on the leaf in about 50%.
5: Disease sign is observed on the leaf in about 30%.
7: Disease sign is observed on the leaf in about 20%.
9: a little disease sign is observed.
as §1

[4] = test system: Alternaria kikuchiana; test: Anti-fungal activity in vitro; assay type: cell-based; settings: 48 h, GY medium, 28° C., 2 days, spore suspension
Procedure: (§2) (1) Each test compound was diluted by two-fold dilution with GY medium (2% glucose and 0.4% yeast extract) containing 0.01% Tween 80 (trademark). Every diluted solution was inoculated with spore suspension (10^5-5 spores/ml) of Alternaria kikuchiana or a hyphae disk with agar (4 mm in diameter) of other fungi and incubated at 28° C. for 2 days.

[5] = test system: Cladosporium herbarum; test: Anti-fungal activity in vitro; assay type: cell-based; settings: 48 h, GY medium, 28° C., 2 days
Procedure: as §2

[6] = test system: Cochiobolus sativus; test: Anti-fungal activity in vitro; assay type: cell-based; settings: 48 h; GY medium, 28° C., 2 days
Procedure: as §2

[7] = test system: Corticium rolfsii; test: Anti-fungal activity in vitro; assay type: cell-based; settings: Agroathelia rolfsii, 48 h; GY medium, 28° C., 2 days
Procedure: as §2

[8] = test system: Diaporthe citri; test: Anti-fungal activity in vitro; assay type: cell-based; settings: 48 h, GY medium, 28° C., 2 days
Procedure: as §2

[9] = test system: Monilinia fructicola; test: Anti-fungal activity in vitro; assay type: cell-based; settings: 48 h, GY medium, 28° C., 2 days
Procedure: as §2

[10] = test system: Pyrenophora graminea; test: Anti-fungal activity in vitro; assay type: cell-based; settings: 48 h, GY medium, 28° C., 2 days
Procedure: as §2

[11] = test system: Ustilago nuda; test: Anti-fungal activity in vitro; assay type: cell-based; settings: 48 h, GY medium, 28° C., 2 days
Procedure: as §2

[12] = test system: Rhizoctonia solani; test: Control test to damping-off of cucumber (Rhizoctonia solani); assay type: in vivo; settings: soil drench, 14 days
Procedure: (§3) (1) The fungus causing damping-off of cucumber seedlings, Rhizoctonia solani or Fusarium oxysporum was cultured on a wheat bran medium at 28° C. for 5 days, which was mixed with sterilized soil and cultured for 2 days to prepare the inoculum. Sterilized soil (150 g) was put into a pot of 9 cm in diameter. The surface of the spot was covered with the above inoculum. […] Twenty cucumber seeds (Cultivar: Matsukaze) were sown 2 days after. The pots were kept at 30°±2° C. for 14 days. The infection was observed 14 days after and disease degree and percent disease degree were obtained by setting an evaluation index for each disease sympton.
(§4) (2) Evaluation [formula] wherein a: number of seeds without germination b: number of seedlings showing damping-off c: number of wilted seedlings d: number of seedlings being a little brownish in cotyledons or at the bottom of the stem e: number of uninfected seedlings [formula] wherein a: number of seeds without germination or seedlings with damping-off b: number of wilted seedlings c: number of seedlings being a little brownish in cotyledons or at the bottom of the stem d: number of uninfected seedlings [formula]

[13] = test system: Fusarium oxysporum; test: Control test to damping-off of cucumber (Fusarium oxysporum); assay type: in vivo; settings: 500 ppm, soil drench, 14 days
Procedure: as §3, §4

[14] = test system: Vasla ceratosperma; test: Anti-fungal activity in vitro; assay type: cell-based; settings: 48 h; GY medium, 28° C., 2 days
Procedure: as §2

[15] = test system: Puccinia coronata; test: Control test of crown rust of oat; assay type: in vivo
Procedure: (1) Young oats (Cultivar: Pc38) grown in pots in a greenhouse were (i) sprayed with 10 ml each of solution of the test compounds at a prescribed concentration and after air-drying, they were inoculated with 15 mg of uredospores of Puccinia coronata per 20 pots (protective spraying) or (ii) sprayed with the test solution 3 days after inoculation of uredospores. After each plant was kept at 20°-25° C. in a greenhouse for 2 weeks, number of uredia was counted on the first leaf.

MIC [4] [µg/mL] | MIC [5] [µg/mL] | MIC [6] [µg/mL] | MIC [7] [µg/mL] | MIC [8] [µg/mL] | MIC [9] [µg/mL] | MIC [10] [µg/mL] | MIC [11] [µg/mL] | Structure (SMILES) | Percent Disease Control, Curative Spraying ([2]; 31.3 ppm) [%] | Percent Disease Control, Protective Spraying ([2]; 31.3 ppm) [%] | Percent Disease Control, Curative Spraying ([2]; 125 ppm) [%] | Percent Disease Control, Protective Spraying ([2]; 125 ppm) [%] | Foliar Treatment, Curative Effect ([3]; second Table 4, 0.5 ppm) | Foliar Treatment, Protective Effect ([3]; second Table 4, 0.5 ppm) | Soil Treatment, Protective Effect ([3]; second Table 4, 0.5 ppm) | Foliar Treatment, Curative Effect ([3]; second Table 4, 2.0 ppm) | Foliar Treatment, Protective Effect ([3]; second Table 4, 2.0 ppm) | Soil Treatment, Protective Effect ([3]; second Table 4, 2.0 ppm) | Foliar Treatment, Curative Effect ([3]; second Table 4, 7.8 ppm) | Foliar Treatment, Protective Effect ([3]; second Table 4, 7.8 ppm) | other results
12.5 (≈ 42.8 µM) | 6.25 (≈ 21.4 µM) | 6.25 (≈ 21.4 µM) | 50 (≈ 171 µM) | 25 (≈ 85.7 µM) | 0.2 (≈ 0.685 µM) | 12.5 (≈ 42.8 µM) | 1.56 (≈ 5.35 µM) | O[C@@]1(c2ccc(Cl)cc2)CCCCC[C@H]1n1cncn1 (relative stereo) [Compound 24, cis-1-(4-chlorophenyl)-2-(1,2,4-triazol-1-yl)cycloheptanol] | 96 | 100 | 97 | 100 | 10 | 5 (Disease sign is observed on the leaf in about 30%.) | 0 | 10 | 10 | 0 | 10 | 10 | Percent Disease Control, Curative Spraying ([1]; Table 2, 31.3 ppm): 86%; Percent Disease Control, Protective Spraying ([1]; Table 2, 31.3 ppm): 100%; Percent Disease Control, Curative Spraying ([1]; Table 2, 125 ppm): 94%; Percent Disease Control, Protective Spraying ([1]; Table 2, 125 ppm): 100%; Soil Treatment, Protective Effect ([3]; second Table 4, 7.8 ppm): 10; Foliar Treatment, Curative Effect ([3]; second Table 4, 31.3 ppm): 10; Foliar Treatment, Protective Effect ([3]; second Table 4, 31.3 ppm): 10; Soil Treatment, Protective Effect ([3]; second Table 4, 31.3 ppm): 10
25 (≈ 70.9 µM) | – | 3.13 (≈ 8.88 µM) | 1.56 (≈ 4.42 µM) | 3.13 (≈ 8.88 µM) | 1.56 (≈ 4.42 µM) | 6.25 (≈ 17.7 µM) | 6.25 (≈ 17.7 µM) | O[C@@]1(c2sc(Cl)c(Cl)c2Cl)CCCC[C@H]1n1cncn1 (relative stereo) [Compound 12, cis-1-(3,4,5-trichloro-2-thienyl)-2-(1,2,4-triazol-1-yl)cyclohexanol] | – | – | – | – | – | – | – | – | – | – | – | – | Disease Degree ([12]; 500 ppm): 0; Percent Disease Control ([12]; 500 ppm): 100%; Disease Degree [13]: 17; Percent Disease Control [13]: 83%; Protective Index, Foliar Treatment ([3]; first Table 4, 125 ppm, foliar, 14 days): 10; Protective Index, Soil Treatment ([3]; first Table 4, 125 ppm, soil, 14 days): 10; MIC [14]: 3.13 µg/mL (≈ 8.88 µM)
3.13 (≈ 11.3 µM) | 1.56 (≈ 5.62 µM) | 3.13 (≈ 11.3 µM) | 12.5 (≈ 45 µM) | 3.13 (≈ 11.3 µM) | 0.39 (≈ 1.4 µM) | 1.56 (≈ 5.62 µM) | 3.13 (≈ 11.3 µM) | O[C@@]1(c2ccccc2Cl)CCCC[C@H]1n1cncn1 (relative stereo) [Compound 32] | 86 | 72 | 94 | 100 | 7 (Disease sign is observed on the leaf in about 20%.) | 0 | 0 | 10 | 9 | 0 | 10 | 10 | Disease Degree ([12]; 31.3 ppm): 10; Percent Disease Control ([12]; 31.3 ppm): 90%; Soil Treatment, Protective Effect ([3]; second Table 4, 7.8 ppm): 10; Foliar Treatment, Curative Effect ([3]; second Table 4, 31.3 ppm): 10; Foliar Treatment, Protective Effect ([3]; second Table 4, 31.3 ppm): 10; Soil Treatment, Protective Effect ([3]; second Table 4, 31.3 ppm): 10

Structure (SMILES) | MIC [4] [µg/mL] | MIC [5] [µg/mL] | MIC [6] [µg/mL] | MIC [7] [µg/mL] | MIC [8] [µg/mL] | MIC [9] [µg/mL] | MIC [10] [µg/mL] | MIC [11] [µg/mL] | Percent Disease Control, Curative Spraying ([2]; 31.3 ppm) [%] | Percent Disease Control, Protective Spraying ([2]; 31.3 ppm) [%] | Percent Disease Control, Curative Spraying ([2]; 125 ppm) [%] | Percent Disease Control, Protective Spraying ([2]; 125 ppm) [%] | Foliar Treatment, Curative Effect ([3]; second Table 4, 0.5 ppm) | Foliar Treatment, Protective Effect ([3]; second Table 4, 0.5 ppm) | Soil Treatment, Protective Effect ([3]; second Table 4, 0.5 ppm) | Foliar Treatment, Curative Effect ([3]; second Table 4, 2.0 ppm) | Foliar Treatment, Protective Effect ([3]; second Table 4, 2.0 ppm) | Soil Treatment, Protective Effect ([3]; second Table 4, 2.0 ppm) | Foliar Treatment, Curative Effect ([3]; second Table 4, 7.8 ppm) | Foliar Treatment, Protective Effect ([3]; second Table 4, 7.8 ppm) | other results
OC(c1ccc(Cl)cc1)(c1cncnc1)c1ccccc1Cl (centres unmarked) [Fenarimol, reference compound] | 6.25 (≈ 18.9 µM) | > 50 | 1.56 (≈ 4.71 µM) | 25 (≈ 75.5 µM) | > 50 | 3.13 (≈ 9.45 µM) | 12.5 (≈ 37.7 µM) | 25 (≈ 75.5 µM) | – | – | – | – | – | – | – | – | – | – | – | – | Percent Disease Control, Curative Spraying ([15]; 12.5 ppm): 75%; Percent Disease Control, Protective Spraying ([15]; 12.5 ppm): 62%; Percent Disease Control, Curative Spraying ([15]; 25 ppm): 92%; Percent Disease Control, Protective Spraying ([15]; 25 ppm): 89%; Percent Disease Control, Curative Spraying ([15]; 50 ppm): 98%; Percent Disease Control, Protective Spraying ([15]; 50 ppm): 100%; MIC [14]: 12.5 µg/mL (≈ 37.7 µM)
